# According to patent US8912121B2, “Herbicidal compositions comprising 4-amino-3-chloro-5-fluoro-6-(4-chloro-2-fluoro-3-methoxyphenyl)pyridine-2-carboxylic acid or a derivative thereof and certain PS II inhibitors” (Dow Agrosciences LLC, priority 2012, dated 2014):
# Tested on: BRAPP (Brachiaria platyphylla, broadleaf signalgrass)
# Assay: Postemergence foliar-applied mixtures, direct seeded rice, greenhouse
# Assay type: in vivo, Brachiaria platyphylla (Griseb.) Nash
# Source text: Seeds or nutlets of the desired test plant species were planted in a soil matrix prepared by mixing a loam or sandy loam soil (e.g., 28.6 percent silt, 18.8 percent clay, and 52.6 percent sand, with a pH of about 5.8 and an organic matter content of about 1.8 percent) and calcareous grit in an 80 to 20 ratio. The soil matrix was contained in plastic pots with a volume of 1 quart and a surface area of 83.6 square centimeters (cm^2). When required to ensure good germination and healthy plants, a fungicide treatment and/or other chemical or physical treatment was applied. The plants were grown for 8-22 days in a greenhouse with an approximate 14 h photoperiod which was maintained at about 29° C. during the day and 26° C. during the night. Nutrients (Peters Excel® 15-5-15 5-Ca 2-Mg and iron chelate) were applied in the irrigation solution as needed and water was added on a regular basis. Supplemental lighting was provided with overhead metal halide 1000-Watt lamps as necessary. The plants were employed for testing when they reached the first through fourth true leaf stage.
# Treatments consisted of the acid or esters of 4-amino-3-chloro-5-fluoro-6-(4-chloro-2-fluoro-3-methoxy-phenyl) pyridine-2-carboxylic acid (Compound A), each formulated as an SC (suspension concentrate), and various herbicidal components alone and in combination. Forms of compound A were applied on an acid equivalent basis.
# Other herbicidal components were applied on an active ingredient basis and included Photosystem II (PSII)-inhibiting herbicides propanil formulated as Stam® M4 EC, bentazon-sodium formulated as Basagran®, atrazine formulated as Atrazine 90 WDG, bromoxynil octanoate ester formulated as Buctril®, simetryne (technical grade material), simazine formulated as Princep® Caliber 90, ioxynil (technical grade material), cyanazine (technical grade material), and hexazinone (technical grade material).
# Treatment requirements were calculated based upon the rates being tested, the concentration of active ingredient or acid equivalent in the formulation, and a 12 mL application volume at a rate of 187 L/ha.
# For treatments comprised of formulated compounds, measured amounts of compounds were placed individually in 25 mL glass vials and diluted in a volume of 1.25% (v/v) Agri-Dex® crop oil concentrated to obtain 12× stock solutions. […] Application solutions were prepared by adding an appropriate amount of each stock solution (e.g., 1 mL) and diluted to the appropriate final concentrations with the addition of 10 mL of an aqueous mixture of 1.25% (v/v) crop oil concentrate so that the final spray solutions contained 1.25+/−0.05% (v/v) crop oil concentrate.
# For treatments comprised of technical compounds, weighed amounts can be placed individually in 25 mL glass vials and dissolved in a volume of 97:3 v/v acetone/DMSO to obtain 12× stock solutions. […] Application solutions can be prepared by adding an appropriate amount of each stock solution (e.g., 1 mL) and diluted to the appropriate final concentrations with the addition of 10 mL of an aqueous mixture of 1.5% (v/v) crop oil concentrate so that the final spray solutions contain 1.25% (v/v) crop oil concentrate. When technical materials are used, the concentrated stock solutions can be added to the spray solutions so that the final acetone and DMSO concentrations of the application solutions are 16.2% and 0.5%, respectively.
# For treatments comprised of formulated and technical compounds, weighed amounts of the technical materials were placed individually in 25 mL glass vials and dissolved in a volume of 97:3 v/v acetone/DMSO to obtain 12× stock solutions, and measured amounts of the formulated compounds were placed individually in 25 mL glass vials and diluted in a volume of 1.5% (v/v) crop oil concentrate or water to obtain 12× stock solutions. […]
compound,measurement,setting,value
"CCNc1nc(Cl)nc(NC(C)C)n1 [Atrazine, 6-chloro-N-ethyl-N′-(1-methylethyl)-1,3,5-triazine-2,4-diamine, reference compound]",Visual Weed Control (%) Obs,"280 g ai/ha, 22 DAA",0%
same,Visual Weed Control (%) Obs,"560 g ai/ha, 22 DAA",0%
"COc1c(Cl)ccc(-c2nc(C(=O)OCc3ccccc3)c(Cl)c(N)c2F)c1F [Compound A Benzyl Ester, benzyl ester of 4-amino-3-chloro-5-fluoro-6-(4-chloro-2-fluoro-3-methoxy-phenyl)pyridine-2-carboxylic acid]",Visual Weed Control (%) Obs,"4.38 g ae/ha, 22 DAA",55%
same,Visual Weed Control (%) Obs,"8 g ae/ha, 20 DAA",55%
same,Visual Weed Control (%) Obs,"8.75 g ae/ha, 22 DAA",70%
same,Visual Weed Control (%) Obs,"16 g ae/ha, 20 DAA",90%
same,Visual Weed Control (%) Obs,"17.5 g ae/ha, 22 DAA",75%
same,Visual Weed Control (%) Obs,"32 g ae/ha, 20 DAA",90%
"COc1c(Cl)ccc(-c2nc(C(=O)O)c(Cl)c(N)c2F)c1F [Compound A Acid, 4-amino-3-chloro-6-(4-chloro-2-fluoro-3-methoxyphenyl)-5-fluoropyridine-2-carboxylic acid]",Visual Weed Control (%) Obs,"4.38 g ae/ha, 22 DAA",45%
same,Visual Weed Control (%) Obs,"8.75 g ae/ha, 22 DAA",70%
"CCNc1nc(Cl)nc(NCC)n1 [Simazine, 6-chloro-N,N′-diethyl-1,3,5-triazine-2,4-diamine, reference compound]",Visual Weed Control (%) Obs,"560 g ai/ha, 20 DAA",0%
same,Visual Weed Control (%) Obs,"1120 g ai/ha, 20 DAA",0%
same,Visual Weed Control (%) Obs,"2240 g ai/ha, 20 DAA",0%
